Test results taken from patent publication US7959948B2, “Pharmaceutical composition of quetiapine fumarate” (Synthon BV, priority 2007, dated 2011).
Where a name gives a salt, the structure may show the parent alone.

Tests used:
physchem = test: physchem
Text: The composition preferably comprises an acid, preferably fumaric acid.

[1] = white crystalline powder; cited from earlier work

solubility (physchem; pH 1, simulated gastric fluid): 35.8 mg/mL
solubility (physchem; pH 6.2, aqueous buffer): 4.6 mg/mL
SMILES: OCCOCCN1CCN(C2=Nc3ccccc3Sc3ccccc32)CC1 [Quetiapine fumarate, 2-[2-(4-dibenzo[b,f] [1,4]thiazepin-11-yl-1-piperazinyl)ethoxy]ethanol]
solubility in water [1]: moderately soluble in water
